Experiments:
rat GnRH receptor = biological target: T1, rat GnRH receptor (Rattus norvegicus, UniProt P30969); experiment: Radioligand binding: inhibition of 125I-GnRH-A binding to rat GnRH receptor (rat pituitary membranes); conditions: read-out: Ki (nM), Inhibition Binding of 125I-GnRH-A to GnRH Receptors
T1 construct: or rat pituitaries (Pel Freez Biologicals, Rogers, Ark.) were homogenized; tissue Pel Freez Biologicals; host or cells: rat pituitaries (membrane preparation)
T1 sequence (P30969 1-327): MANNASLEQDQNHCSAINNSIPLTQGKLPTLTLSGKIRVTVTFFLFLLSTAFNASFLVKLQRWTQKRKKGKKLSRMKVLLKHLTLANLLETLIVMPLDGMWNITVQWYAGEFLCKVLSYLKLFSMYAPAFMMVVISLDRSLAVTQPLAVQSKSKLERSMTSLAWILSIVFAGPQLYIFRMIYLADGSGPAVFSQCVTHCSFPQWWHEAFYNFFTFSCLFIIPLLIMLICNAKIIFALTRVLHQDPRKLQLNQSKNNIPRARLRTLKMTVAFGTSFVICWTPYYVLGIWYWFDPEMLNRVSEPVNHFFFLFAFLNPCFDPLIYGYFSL
Protocol: (§1) HEK 293 cells containing mouse or human receptors, or rat pituitaries (Pel Freez Biologicals, Rogers, Ark.) were homogenized in buffer A containing: 50 mM Tris (pH 7.4), 0.32 M sucrose, 2 mM EGTA, 1 mM PMSF, 5 μg/ml aprotinen, 5 μg/ml Pepstatin A, and 1 μg/ml leupeptin. Homogenized cells were centrifuged at 4° C. at 20,000×g for 25 minutes, re-suspended in buffer A and re-centrifuged at 4° C. at 20,000×g for an additional 25 minutes. Total membrane protein was determined with a BCA kit (Pierce, Rockford, Ill.). Membranes were stored at −70° C. at a final membrane protein concentration of approximately 5 mg/ml.
(§2) The radioiodinated agonist analog of GnRH, [des-Gly^10,D-Ala^6]GnRH ethylamide (^125I-GnRH-A), was used as the radioligand. […] The reaction mixture was vortexed and incubated for 1 minute at room temperature. After one minute, the mixture was vortexed and allowed to incubate for an additional minute. 2 ml of 0.5 M acetic acid/1% BSA was added to the reaction tube and the mixture was added to a C18 Sep-Pak cartridge. The cartridge was washed with subsequent washes of 5 ml H2O and 5 ml 0.5 M acetic acid and then eluted with 5×1 ml of 60% CH3CN/40% 0.5 M acetic acid. The eluate was diluted with 3× volume of HPLC buffer A (0.1% TFA in H2O) and loaded onto a C18 column. The iodinated product was eluted over 20-25 min with a gradient of 25-100% CH3CN containing 0.1% TFA. The radioactive fractions (750 μl/fraction) were collected into clean polypropylene tubes containing 100 μl of 10% BSA. Fractions were assessed for biological activity by radioligand binding. Specific activity of the radioligand was approximately 2200 Ci/mmol.
(§3) Membranes were diluted to 0.01-0.5 mg/ml (depending upon the species of receptor) with assay buffer containing 50 mM HEPES (pH 7.4), 1 mM EDTA, 2.5 mM MgCl2, and 0.1% BSA. Membranes (diluted to utilize similar receptor numbers between assays) were incubated with approximately 0.04-0.06 nM ^125I-GnRH-A in the presence or absence of competing agents (0.1-10,000 nM) in a total volume of 200 μl in 96-well polypropylene plates for 1 hour at room temperature. Assays were stopped by rapid filtration onto 96-well GF/C filters soaked in 0.1% polyethylenimine (PEI) utilizing a Packard 96-well cell harvester. Filters were washed three times with ice-cold PBS (50 mM NaPO4, 0.9% NaCl, 2 mM MgCl2, and 0.02% NaN3, pH 7.4). 35 μl of scintillation cocktail was added to each filter well and filters were counted on a Packard Topcount. Control dose-response curves were generated to GnRH (0.1 nM-100 nM) in each competition binding experiment. Ki values were calculated from IC50 values according to Cheng et al., Biochemical Pharmacol. 22: 3099-3108, 1973. [formula]

human GnRH receptors = biological target: T2, human GnRH receptors (Homo sapiens, UniProt P30968); experiment: Radioligand binding: inhibition of 125I-GnRH-A binding to human GnRH receptor membranes; conditions: HEK 293 cell membranes
T2 construct: expressed in transfected cells; host or cells: HEK 293 cells, stably transfected; membranes
T2 sequence (P30968 1-328): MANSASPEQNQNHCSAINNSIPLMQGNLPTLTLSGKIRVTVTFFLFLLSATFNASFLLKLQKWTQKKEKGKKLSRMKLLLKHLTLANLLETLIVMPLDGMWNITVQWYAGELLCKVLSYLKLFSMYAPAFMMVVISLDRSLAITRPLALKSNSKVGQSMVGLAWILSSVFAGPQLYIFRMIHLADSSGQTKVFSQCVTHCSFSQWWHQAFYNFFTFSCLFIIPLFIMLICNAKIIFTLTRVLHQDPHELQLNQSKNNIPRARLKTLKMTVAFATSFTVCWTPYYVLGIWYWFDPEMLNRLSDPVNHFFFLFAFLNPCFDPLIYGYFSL
Protocol: HEK 293 cells stably transfected with mouse or human GnRH receptors as described above were grown in Dulbecco's high-glucose, modified Eagle's medium (DMEM) supplemented with 0.2% G418, 10% fetal bovine serum (FBS) and 100 U/mL penicillin/streptomycin. GH3 cells stably transfected with the rat GnRH receptor (GGH3) were provided by Dr. William Chin (Harvard Medical School, Boston, Mass.). These cells have been extensively characterized previously (Kaiser et al., 1997). The cells were grown in low glucose DMEM containing: 100U/mL penicillin/streptomycin, 0.6% G418 and 10% heat-inactivated FBS.
as §1, §2, §3

Ki (rat GnRH receptor) [nM]	Ki (human GnRH receptors) [nM]	SMILES
1.1	3	COCCNc1nc(OC)c(NC(=O)c2ccc(Cc3cc4c(cc3C)C(C)(C)OC4(C)C)o2)c(OC)n1 [Example D74]
4.4	36	COc1nc(NCC(c2ccc[nH]2)C(F)(F)F)nc(OC)c1NC(=O)c1ccc(Cc2cc3c(cc2C)C(C)(C)OC3(C)C)o1 (stereo not drawn) [Example D57, N-(4,6-Dimethoxy-2-{[3,3,3-trifluoro-2-(1H-pyrrol-2-yl)propyl]amino}pyrimidin-5-yl)-5-[(1,1,3,3,6-pentamethyl-1,3-dihydro-2-benzofuran-5-yl)methyl]-2-furamide]
9	7.6	COc1nc(Oc2ccccc2)nc(OC)c1NC(=O)c1ccc(Cc2cc3c(cc2C)C(C)(C)OC3(C)C)o1 [Example A2, 5-(1,1,3,3,6-Pentamethyl-1,3-dihydro-isobenzofuran-5-ylmethyl)-furan-2-carboxylic acid (4,6-dimethoxy-2-phenoxy-pyrimidin-5-yl)-amide]
0.5	1	CNCCNc1nc(OC)c(NC(=O)c2ccc(Cc3cc4c(cc3C)C(C)(C)OC4(C)C)o2)c(OC)n1 [Example D20, N-(4,6-Dimethoxy-2-{[2-(methylamino)ethyl]amino}-pyrimidin-5-yl}-5-[(1,1,3,3,6-pentamethyl-1,3-dihydro-2-benzofuran-5-yl)methyl]-2-furamide]
16	24	COc1nc(NCCCN2CCN(C)CC2)nc(OC)c1NC(=O)c1ccc(Cc2c(C)cc3c(c2C)C(C)(C)CCO3)o1 [Example I2, N-(4,6-Dimethoxy-2-{[3-(4-methylpiperazin-1-yl)propyl]amino}pyrimidin-5-yl)-5-[(4,4,5,7-tetramethyl-3,4-dihydro-2H-chromen-6-yl)methyl]-2-furamide]
45	36	CCOCCN(CCOCC)c1nc(OC)c(NC(=O)c2ccc(Cc3cc4c(cc3C)C(C)(C)OC4(C)C)o2)c(OC)n1 [Example D49, N-{2-[Bis(2-ethoxyethyl)amino]-4,6-dimethoxypyrimidin-5-yl}-5-[(1,1,3,3,6-pentamethyl-1,3-dihydro-2-benzofuran-5-yl)methyl]-2-furamide]
0.64	1.6	COc1nc(NCCSCCO)nc(OC)c1NC(=O)c1ccc(Cc2cc3c(cc2C)C(C)(C)OC3(C)C)o1 [Example D42, N-[2-({2-[(2-Hydroxyethyl)thio]ethyl}amino)-4,6-dimethoxypyrimidin-5-yl]-5-[(1,1,3,3,6-pentamethyl-1,3-dihydro-2-benzofuran-5-yl)methyl]-2-furamide]
3.1	4.8	COc1nc(NCCN(C)CCCCCO)nc(OC)c1NC(=O)c1ccc(Cc2cc3c(cc2C)C(C)(C)OC3(C)C)o1 [Example D58, N-[2-({2-[(5-Hydroxypentyl)(methyl)amino]ethyl}amino)-4,6-dimethoxypyrimidin-5-yl]-5-[(1,1,3,3,6-pentamethyl-1,3-dihydro-2-benzofuran-5-yl)methyl]-2-furamide]
12	12	COc1nc(NCCCN2CCOCC2)nc(OC)c1NC(=O)c1ccc(Cc2c(C)cc(C)c3c2OCC3(C)C)o1 [Example H6, N-{4,6-Dimethoxy-2-[(3-morpholin-4-ylpropyl)amino]-pyrimidin-5-yl}-5-[(3,3,4,6-tetramethyl-2,3-dihydro-1-benzofuran-7-yl)methyl]-2-furamide]
26	27	COc1nc(NCCCN2CCOCC2)nc(OC)c1NC(=O)c1ccc(Cc2c(C)cc3c(c2C)C(C)(C)CCO3)o1 [Example I1, N-{4,6-Dimethoxy-2-[(3-morpholin-4-ylpropyl)amino]pyrimidin-5-yl}-5-[(4,4,5,7-tetramethyl-3,4-dihydro-2H-chromen-6-yl)methyl]-2-furamide]
19	24	COc1nc(N[C@@H](CO)CSCc2ccccc2)nc(OC)c1NC(=O)c1ccc(Cc2cc3c(cc2C)C(C)(C)OC3(C)C)o1 [Example D50, N-(2-{[(1S)-2-(Benzylthio)-1-(hydroxymethyl)ethyl]amino}-4,6-dimethoxypyrimidin-5-yl)-5-[(1,1,3,3,6-pentamethyl-1,3-dihydro-2-benzofuran-5-yl)methyl]-2-furamide]
2.6	4.8	COc1nc(N(CC(C)O)CC(C)O)nc(OC)c1NC(=O)c1ccc(Cc2cc3c(cc2C)C(C)(C)OC3(C)C)o1 (stereo not drawn) [Example D53, N-{2-[Bis(2-hydroxypropyl)amino]-4,6-dimethoxypyrimidin-5-yl)-5-[(1,1,3,3,6-pentamethyl-1,3-dihydro-2-benzofuran-5-yl)methyl]-2-furamide]
15	22	COc1nc(N(C)Cc2cccnc2)nc(OC)c1NC(=O)c1ccc(Cc2cc3c(cc2C)C(C)(C)OC3(C)C)o1 [Example D38, N-{4,6-Dimethoxy-2-[methyl(pyridin-3-ylmethyl)amino]pyrimidin-5-yl}-5-[(1,1,3,3,6-pentamethyl-1,3-dihydro-2-benzofuran-5-yl)methyl]-2-furamide]
	160	COc1nc(NCc2ccc(-c3ccccc3)cc2)nc(OC)c1NC(=O)c1ccc(Cc2cc3c(cc2C)C(C)(C)OC3(C)C)o1 [Example D55, N-{2-[(1,1′-Biphenyl-4-ylmethyl)amino]-4,6-dimethoxypyrimidin-5-yl}-5-[(1,1,3,3,6-pentamethyl-1,3-dihydro-2-benzofuran-5-yl)methyl]-2-furamide]
	21	COc1nc(N[C@H](CO)Cc2c[nH]c3ccccc23)nc(OC)c1NC(=O)c1ccc(Cc2cc3c(cc2C)C(C)(C)OC3(C)C)o1 [Example D64, N-(2-{[(1S)-2-Hydroxy-1-(1H-indol-3-ylmethyl)ethyl]amino}-4,6-dimethoxypyrimidin-5-yl)-5-[(1,1,3,3,6-pentamethyl-1,3-dihydro-2-benzofuran-5-yl)methyl]-2-furamide]
	500	COc1nc(N2CCN(c3cc(C(F)(F)F)nc4ccccc34)CC2)nc(OC)c1NC(=O)c1ccc(Cc2cc3c(cc2C)C(C)(C)OC3(C)C)o1 [Example D61, N-(4,6-dimethoxy-2-{4-[2-(trinfluoromethyl)quinolin-4-yl]piperazin-1-yl}pyrimidin-5-yl)-5-[(1,1,3,3,6-pentamethyl-1,3-dihydro-2-benzofuran-5-yl)methyl]-2-furamide]
	120	COc1nc(N2CCN(c3ccc(Cl)cc3)CC2)nc(OC)c1NC(=O)c1ccc(Cc2cc3c(cc2C)C(C)(C)OC3(C)C)o1 [Example D62, N-{2-[4-(4-Chlorophenyl)piperazin-1-yl]-4,6-dimethoxypyrimidin-5-yl}-5-[(1,1,3,3,6-pentamethyl-1,3-dihydro-2-benzofuran-5-yl)methyl]-2-furamide]
